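GI50: concentration for 50% inhibition of growth. Definition used: TGI = concentration required for complete inhibition of growth.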
How the values were obtained:
Assay in all cases: NCI tumour cell line growth inhibition, 384-well format
SK-OV-3 ovarian = tested on: SK-OV-3 ovarian
HCT-15 colon = tested on: HCT-15 colon
OVCAR-5 ovarian = tested on: OVCAR-5 ovarian
K-562 leukemia = tested on: K-562 leukemia
SN12C renal = tested on: SN12C renal
SF-268 CNS = tested on: SF-268 CNS
MDA-MB-435 melanoma = tested on: MDA-MB-435 melanoma
HT29 colon = tested on: HT29 colon
786-0 renal = tested on: 786-0 renal
NCI/ADR-RES ovarian = tested on: NCI/ADR-RES ovarian
RXF 393 renal = tested on: RXF 393 renal
OVCAR-8 ovarian = tested on: OVCAR-8 ovarian
NCI-H322M lung = tested on: NCI-H322M lung
A549 NSCLC = tested on: A549 NSCLC
SF-539 CNS = tested on: SF-539 CNS
IGROV1 ovarian = tested on: IGROV1 ovarian
M14 melanoma = tested on: M14 melanoma
NCI-H23 lung = tested on: NCI-H23 lung
SF-295 CNS = tested on: SF-295 CNS
NCI-H226 lung = tested on: NCI-H226 lung
SK-MEL-28 melanoma = tested on: SK-MEL-28 melanoma
HS 578T breast = tested on: HS 578T breast
CAKI-1 renal = tested on: CAKI-1 renal
UO-31 renal = tested on: UO-31 renal
T-47D breast = tested on: T-47D breast
MCF7 breast = tested on: MCF7 breast
SNB-19 CNS = tested on: SNB-19 CNS
SK-MEL-2 melanoma = tested on: SK-MEL-2 melanoma
OVCAR-3 ovarian = tested on: OVCAR-3 ovarian
PC-3 prostate = tested on: PC-3 prostate
EKVX NSCLC = tested on: EKVX NSCLC
HCT-116 colon = tested on: HCT-116 colon
MDA-MB-468 breast = tested on: MDA-MB-468 breast
UACC-62 melanoma = tested on: UACC-62 melanoma
MALME-3M melanoma = tested on: MALME-3M melanoma
SW-620 colon = tested on: SW-620 colon
U251 glioblastoma = tested on: U251 glioblastoma
LOX IMVI melanoma = tested on: LOX IMVI melanoma
HOP-92 NSCLC = tested on: HOP-92 NSCLC
KM12 colon = tested on: KM12 colon
ACHN renal = tested on: ACHN renal
BT-549 breast = tested on: BT-549 breast
HOP-62 NSCLC = tested on: HOP-62 NSCLC
MOLT-4 leukemia = tested on: MOLT-4 leukemia
A498 renal = tested on: A498 renal
DU-145 prostate = tested on: DU-145 prostate
UACC-257 melanoma = tested on: UACC-257 melanoma
MDA-MB-231 breast = tested on: MDA-MB-231 breast
NCI-H522 lung = tested on: NCI-H522 lung
OVCAR-4 ovarian = tested on: OVCAR-4 ovarian
SNB-75 CNS = tested on: SNB-75 CNS
RPMI-8226 leukemia = tested on: RPMI-8226 leukemia
TK-10 renal = tested on: TK-10 renal
CCRF-CEM leukemia = tested on: CCRF-CEM leukemia
HL-60(TB) leukemia = tested on: HL-60(TB) leukemia

SMILES: CN(N=O)C(=O)N[C@@H](C=O)[C@@H](O)[C@H](O)[C@H](O)CO
- GI50 (SK-OV-3 ovarian): > 100 µM
- TGI (SK-OV-3 ovarian): > 100 µM
- GI50 (HCT-15 colon): > 100 µM
- TGI (HCT-15 colon): > 100 µM
- GI50 (OVCAR-5 ovarian): > 100 µM
- TGI (OVCAR-5 ovarian): > 100 µM
- GI50 (K-562 leukemia): > 100 µM
- TGI (K-562 leukemia): > 100 µM
- GI50 (SN12C renal): > 100 µM
- TGI (SN12C renal): > 100 µM
- GI50 (SF-268 CNS): > 100 µM
- TGI (SF-268 CNS): > 100 µM
- GI50 (MDA-MB-435 melanoma): > 100 µM
- TGI (MDA-MB-435 melanoma): > 100 µM
- GI50 (HT29 colon): > 100 µM
- TGI (HT29 colon): > 100 µM
- GI50 ([…]-0 renal): > 100 µM
- TGI (786-0 renal): > 100 µM
- GI50 (NCI/ADR-RES ovarian): > 100 µM
- TGI (NCI/ADR-RES ovarian): > 100 µM
- GI50 (RXF 393 renal): > 100 µM
- TGI (RXF 393 renal): > 100 µM
- GI50 (OVCAR-8 ovarian): > 100 µM
- TGI (OVCAR-8 ovarian): > 100 µM
- GI50 (NCI-H322M lung): > 100 µM
- TGI (NCI-H322M lung): > 100 µM
- GI50 (A549 NSCLC): > 100 µM
- TGI (A549 NSCLC): > 100 µM
- GI50 (SF-539 CNS): > 100 µM
- TGI (SF-539 CNS): > 100 µM
- GI50 (IGROV1 ovarian): > 100 µM
- TGI (IGROV1 ovarian): > 100 µM
- GI50 (M14 melanoma): > 100 µM
- TGI (M14 melanoma): > 100 µM
- GI50 (NCI-H23 lung): > 100 µM
- TGI (NCI-H23 lung): > 100 µM
- GI50 (SF-295 CNS): > 100 µM
- TGI (SF-295 CNS): > 100 µM
- GI50 (NCI-H226 lung): > 100 µM
- TGI (NCI-H226 lung): > 100 µM
- GI50 (SK-MEL-28 melanoma): > 100 µM
- TGI (SK-MEL-28 melanoma): > 100 µM
- GI50 (HS 578T breast): > 100 µM
- TGI (HS 578T breast): > 100 µM
- GI50 (CAKI-1 renal): > 100 µM
- TGI (CAKI-1 renal): > 100 µM
- GI50 (UO-31 renal): > 100 µM
- TGI (UO-31 renal): > 100 µM
- GI50 (T-47D breast): > 100 µM
- TGI (T-47D breast): > 100 µM
- GI50 (MCF7 breast): > 100 µM
- TGI (MCF7 breast): > 100 µM
- GI50 (SNB-19 CNS): > 100 µM
- TGI (SNB-19 CNS): > 100 µM
- GI50 (SK-MEL-2 melanoma): > 100 µM
- TGI (SK-MEL-2 melanoma): > 100 µM
- GI50 (OVCAR-3 ovarian): > 100 µM
- TGI (OVCAR-3 ovarian): > 100 µM
- GI50 (PC-3 prostate): > 100 µM
- TGI (PC-3 prostate): > 100 µM
- GI50 (EKVX NSCLC): > 100 µM
- TGI (EKVX NSCLC): > 100 µM
- GI50 (HCT-116 colon): > 100 µM
- TGI (HCT-116 colon): > 100 µM
- GI50 (MDA-MB-468 breast): > 100 µM
- TGI (MDA-MB-468 breast): > 100 µM
- GI50 (UACC-62 melanoma): > 100 µM
- TGI (UACC-62 melanoma): > 100 µM
- GI50 (MALME-3M melanoma): > 100 µM
- TGI (MALME-3M melanoma): > 100 µM
- GI50 (SW-620 colon): > 100 µM
- TGI (SW-620 colon): > 100 µM
- GI50 (U251 glioblastoma): > 100 µM
- TGI (U251 glioblastoma): > 100 µM
- GI50 (LOX IMVI melanoma): > 100 µM
- TGI (LOX IMVI melanoma): > 100 µM
- GI50 (HOP-92 NSCLC): > 100 µM
- TGI (HOP-92 NSCLC): > 100 µM
- GI50 (KM12 colon): > 100 µM
- TGI (KM12 colon): > 100 µM
- GI50 (ACHN renal): > 100 µM
- TGI (ACHN renal): > 100 µM
- GI50 (BT-549 breast): > 100 µM
- TGI (BT-549 breast): > 100 µM
- GI50 (HOP-62 NSCLC): > 100 µM
- TGI (HOP-62 NSCLC): > 100 µM
- GI50 (MOLT-4 leukemia): > 100 µM
- TGI (MOLT-4 leukemia): > 100 µM
- GI50 (A498 renal): > 100 µM
- TGI (A498 renal): > 100 µM
- GI50 (DU-145 prostate): > 100 µM
- TGI (DU-145 prostate): > 100 µM
- GI50 (UACC-257 melanoma): > 100 µM
- TGI (UACC-257 melanoma): > 100 µM
- GI50 (MDA-MB-231 breast): > 100 µM
- TGI (MDA-MB-231 breast): > 100 µM
- GI50 (NCI-H522 lung): > 100 µM
- TGI (NCI-H522 lung): > 100 µM
- GI50 (OVCAR-4 ovarian): > 100 µM
- TGI (OVCAR-4 ovarian): > 100 µM
- GI50 (SNB-75 CNS): > 100 µM
- TGI (SNB-75 CNS): > 100 µM
- GI50 (RPMI-8226 leukemia): > 100 µM
- TGI (RPMI-8226 leukemia): > 100 µM
- GI50 (TK-10 renal): > 100 µM
- TGI (TK-10 renal): > 100 µM
- GI50 (CCRF-CEM leukemia): > 100 µM
- TGI (CCRF-CEM leukemia): > 100 µM
- GI50 (HL-60(TB) leukemia): > 100 µM
- TGI (HL-60(TB) leukemia): > 100 µM

Source: PubChem BioAssay (NCI)
